Source: patent publication US5591741A, “Fungicidal spiroheterocyclic derivatives” (American Cyanamid Company, priority 1993, dated 1997)

How the values were obtained:
Botrytis cinerea = assay: Direct protectant activity against broad bean grey mould (BCB); format: in vivo; details: direct protectant foliar spray, 600 ppm, 4 days
Summary of the method: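 Broad bean plants (cv The Sutton, two leaf pairs) sprayed on upper leaf surfaces at 600 ppm, then inoculated 24 h later with 10^6 conidia/ml. Kept 4 days at 22 °C, high humidity; disease control rated from % leaf area with lesions against untreated or diluent controls.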

[1] = tested on: Pseudocercosporella herpotrichoides; assay: Activity against wheat eyespot in-vitro (PHI); format: cell-based; details: 10 ppm, 10 days, 20° C., mycelial growth
Summary of the method: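 P. herpotrichoides mycelial fragments (5×10^4/ml) grown in half-strength PDB with compound at 10 ppm final, added from acetone. Incubated 10 days at 20 °C; mycelial growth rated against untreated or diluent controls.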

Pyricularia oryzae = format: in vivo; details: rice seedlings, direct therapeutic foliar spray, 600 ppm, 4-5 days
Venturia inaequalis = assay: Activity against apple scab in-vitro (VII); format: cell-based; details: 10 ppm, 10 days, 20° C., mycelial growth
Summary of the method: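 Compound in acetone was tested at 10 ppm final in half-strength Potato Dextrose Broth inoculated with V. inaequalis mycelial fragments and spores at 5×10^4 propagules/ml. After 10 days at 20° C, mycelial growth was rated against untreated or diluent controls.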

[2] = tested on: Erysiphe graminis f.sp. hordei; assay: Activity against barley powdery mildew, direct therapeutic (EGT); format: in vivo; details: direct therapeutic foliar spray, 600 ppm, up to 7 days
Summary of the method: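 Barley seedlings (cv. Golden Promise, single-leaf stage) were dusted with mildew conidia one day before a therapeutic foliar spray of 600 ppm compound. Plants were kept at 18 °C and 40% humidity for up to 7 days, and sporulating leaf area was rated against untreated or diluent-sprayed controls.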

Rhizoctonia solani = assay: Activity against Rhizoctonia in-vitro (RSI); format: cell-based; details: 10 ppm, 10 days, 20° C., mycelial growth
Summary of the method: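 R. solani mycelial fragments (5×10^4/ml) in half-strength Potato Dextrose Broth with compound added from acetone to 10 ppm final. Mycelial growth assessed after 10 days at 20° C, rated against untreated or diluent control.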

Phytophthora infestans = format: in vivo; details: tomato, direct protectant foliar spray
Leptosphaeria nodorum = assay: Activity against wheat leafspot (LN); format: in vivo; details: direct therapeutic foliar spray, 600 ppm, 6-8 days
Summary of the method: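 Wheat cv Norman at single-leaf stage spray-inoculated with 1.5×10^6 conidia/ml, held 24 h at high humidity, then sprayed therapeutically with test compound at 600 ppm. Kept 6-8 days at 22° C, 70% humidity; lesion density per leaf rated against untreated or diluent-sprayed controls.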

Alternaria solani = assay: Activity against tomato early blight (AS); format: in vivo; details: Table VI; tomato seedlings, contact prophylactic foliar spray, 4 days
Summary of the method: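 Foliar contact prophylactic spray on tomato seedlings (cv Outdoor Girl, second true leaf expanded) in acetone/water 50:50 with 0.04% Tween 20; 24 h at 20° C, 40% R.H., then inoculation with 10^4 spores/ml A. solani conidia. Kept moist at 21° C; lesion cover rated 4 days post-inoculation against untreated or diluent-sprayed controls.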

Plasmopara viticola = assay: Antisporulant activity against vine downy mildew (PVA); format: in vivo; details: vine leaves, antisporulant foliar spray, 600 ppm, 750 l/ha
Summary of the method: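 Cabernet Sauvignon vines (~8 cm) inoculated on lower leaf surfaces with 5×10^4 zoosporangia/ml, held 24 h at 21° C high humidity then 24 h glasshouse. Infected leaves sprayed underside with 600 ppm compound in 1:1 water/acetone, 0.04% Tween 20, 750 l/ha; 96 h glasshouse, 24 h humidity. Sporulating leaf area rated versus control.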

[3] = tested on: Erysiphe graminis f.sp. hordei; assay: Direct protectant activity against barley powdery mildew (EGP); format: in vivo; details: direct protectant foliar spray, 8 days
Summary of the method: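 Barley seedlings (cv Golden Promise, single-leaf stage) were foliar-sprayed, held 24 h at 18 °C/40% RH, then dusted with mildew conidia. After 8 days at 18 °C/40% RH, sporulating leaf area was scored as a rating against untreated or diluent-sprayed controls.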

Compound | disease control rating BCB (Botrytis cinerea) | disease control rating PHI [1] | disease control rating PO (Pyricularia oryzae) | disease control rating VII (Venturia inaequalis) | disease control rating EGT [2] | disease control rating RSI (Rhizoctonia solani) | disease control rating PIP (Phytophthora infestans) | disease control rating LN (Leptosphaeria nodorum) | disease control rating AS (Alternaria solani) | disease control rating PVA (Plasmopara viticola) | disease control rating EGP [3]
CCCCCCCCCCCCCCCCNC1COC2(CCC(C(C)(C)C)CC2)C1 (centres unmarked) [Compound 45] | 0 (less than 50% disease control) | 0 (less than 50% disease control) | 0 (less than 50% disease control) | 0 (less than 50% disease control) | 2 (greater than 80% disease control) | 0 (less than 50% disease control) | 0 (less than 50% disease control) | 0 (less than 50% disease control) | 0 (less than 50% disease control) | 0 (less than 50% disease control) | 2 (greater than 80% disease control)
CCCCCCCCCCCCCCCCCCNC1COC2(CCC(C(C)(C)C)CC2)C1 (centres unmarked) [Compound 46] | 0 (less than 50% disease control) | 0 (less than 50% disease control) | 0 (less than 50% disease control) | 0 (less than 50% disease control) | 2 (greater than 80% disease control) | 0 (less than 50% disease control) | 0 (less than 50% disease control) | 0 (less than 50% disease control) | 0 (less than 50% disease control) | 0 (less than 50% disease control) | 2 (greater than 80% disease control)
CC(C)(C)C1CCC2(CC1)CC(NCc1cccnc1)CO2 (centres unmarked) [Compound 47] | 0 (less than 50% disease control) | 0 (less than 50% disease control) | 0 (less than 50% disease control) | 1 (about 50-80% disease control) | 2 (greater than 80% disease control) | 0 (less than 50% disease control) | 0 (less than 50% disease control) | 0 (less than 50% disease control) | 2 (greater than 80% disease control) | 0 (less than 50% disease control) | 2 (greater than 80% disease control)
CCCCN(Cc1cccnc1)C1COC2(CCC(C(C)(C)C)CC2)C1 (centres unmarked) [Compound 48] | 0 (less than 50% disease control) | 0 (less than 50% disease control) | 0 (less than 50% disease control) | 1 (about 50-80% disease control) | 2 (greater than 80% disease control) | 0 (less than 50% disease control) | 0 (less than 50% disease control) | 0 (less than 50% disease control) | 2 (greater than 80% disease control) | 0 (less than 50% disease control) | 2 (greater than 80% disease control)
CCCCCNC1COC2(CCC(C(C)(C)CC)CC2)C1 (centres unmarked) [Compound 49] | 0 (less than 50% disease control) | 2 (greater than 80% disease control) | 0 (less than 50% disease control) | 1 (about 50-80% disease control) | 2 (greater than 80% disease control) | 1 (about 50-80% disease control) | 2 (greater than 80% disease control) | 2 (greater than 80% disease control) | 0 (less than 50% disease control) | 0 (less than 50% disease control) | 2 (greater than 80% disease control)
CCCCCN(CCCCC)C1COC2(CCC(C(C)(C)CC)CC2)C1 (centres unmarked) [Compound 50] | 0 (less than 50% disease control) | 0 (less than 50% disease control) | 0 (less than 50% disease control) | 1 (about 50-80% disease control) | 2 (greater than 80% disease control) | 0 (less than 50% disease control) | 0 (less than 50% disease control) | 0 (less than 50% disease control) | 0 (less than 50% disease control) | 0 (less than 50% disease control) | 2 (greater than 80% disease control)
CCC(C)(C)C1CCC2(CC1)CC(NC1CCCCC1)CO2 (centres unmarked) [Compound 51] | 0 (less than 50% disease control) | 1 (about 50-80% disease control) | 0 (less than 50% disease control) | 1 (about 50-80% disease control) | 2 (greater than 80% disease control) | 1 (about 50-80% disease control) | 2 (greater than 80% disease control) | 0 (less than 50% disease control) | 2 (greater than 80% disease control) | 0 (less than 50% disease control) | 2 (greater than 80% disease control)
CCC(C)(C)C1CCC2(CC1)CC(N1CC(C)CC(C)C1)CO2 (centres unmarked) [Compound 52] | 0 (less than 50% disease control) | 1 (about 50-80% disease control) | 0 (less than 50% disease control) | 1 (about 50-80% disease control) | 2 (greater than 80% disease control) | 1 (about 50-80% disease control) | 0 (less than 50% disease control) | 0 (less than 50% disease control) | 0 (less than 50% disease control) | 0 (less than 50% disease control) | 2 (greater than 80% disease control)
CCC(C)(C)C1CCC2(CC1)CC(N1CC(C)OC(C)C1)CO2 (centres unmarked) [Compound 53] | 1 (about 50-80% disease control) | 1 (about 50-80% disease control) | 0 (less than 50% disease control) | 1 (about 50-80% disease control) | 2 (greater than 80% disease control) | 0 (less than 50% disease control) | 0 (less than 50% disease control) | 0 (less than 50% disease control) | 0 (less than 50% disease control) | 0 (less than 50% disease control) | 2 (greater than 80% disease control)
CCCCCNC1COC2(CCC(c3ccccc3)CC2)C1 (centres unmarked) [Compound 54] | 0 (less than 50% disease control) | 0 (less than 50% disease control) | 0 (less than 50% disease control) | 1 (about 50-80% disease control) | 2 (greater than 80% disease control) | 0 (less than 50% disease control) | 0 (less than 50% disease control) | 0 (less than 50% disease control) | 0 (less than 50% disease control) | 0 (less than 50% disease control) | 2 (greater than 80% disease control)
